According to the NIST ThermoML archive (doi:10.1016/j.jct.2014.07.006):
Where “and” joins values, the source holds several entries; their conditions need not be identical. Equal entries are not always repeated.

Legend:
[1] = for vapor or sublimation pressure: Liquid, Rate of evaporation; for Normal melting temperature: Crystal, DTA
[2] = Molar enthalpy of transition or fusion; conditions: Crystal; DSC
[3] = molar heat capacity at constant pressure; conditions: 298.15 K; 101.33 kPa; Crystal; Small sample (50 mg) DSC

NC(=O)c1ccc([N+](=O)[O-])cc1 [p-nitrobenzamide]
[1]
Conditions	vapor or sublimation pressure
485.02 K	0.6396 kPa and 0.6809 kPa
485.04 K	0.5788 kPa
485.1 K	0.6701 kPa
490.01 K	0.8437 kPa
490.03 K	0.8038 kPa
490.07 K	0.7398 kPa
490.08 K	0.7145 kPa
495.01 K	1.021 kPa and 0.9548 kPa
495.05 K	0.9568 kPa
495.06 K	0.871 kPa
500.01 K	1.06 kPa
500.03 K	1.229 kPa
500.04 K	1.142 kPa
500.06 K	1.154 kPa
505 K	1.286 kPa
505.03 K	1.474 kPa
505.05 K	1.352 kPa
505.06 K	1.416 kPa
510 K	1.671 kPa
510.02 K	1.683 kPa
510.04 K	1.565 kPa
510.06 K	1.777 kPa
515.01 K	2.113 kPa and 2.01 kPa
515.04 K	2.03 kPa
515.06 K	1.895 kPa
520.02 K	2.452 kPa
520.04 K	2.289 kPa
520.06 K	2.527 kPa
520.08 K	2.386 kPa
525.02 K	3.001 kPa
525.03 K	2.837 kPa
525.05 K	2.926 kPa
525.08 K	2.758 kPa
530.01 K	3.298 kPa
530.03 K	3.568 kPa
530.05 K	3.382 kPa
530.06 K	3.455 kPa
535.02 K	3.943 kPa
535.04 K	4.206 kPa
535.06 K	4.019 kPa
535.07 K	4.152 kPa

Conditions	Molar enthalpy of transition or fusion [kJ/mol]	Normal melting temperature [°C]	molar heat capacity at constant pressure [J/K/mol]
[1]	–	200.33	–
[2]	30.1	–	–
[3]	–	–	212.65

c1ccc2c(c1)ccc1ccccc12 [phenanthrene]
[1]
Conditions	vapor or sublimation pressure
400 K	0.1505 kPa [middle of 4 runs]
405 K	0.18 kPa [middle of 4 runs]
410 K	0.2218 kPa [middle of 4 runs]
415 K	0.2759 kPa [middle of 4 runs]
420 K	0.3417 kPa [middle of 4 runs]
425 K	0.427 kPa [middle of 4 runs]
430 K	0.5304 kPa [middle of 4 runs]
435 K	0.6576 kPa [middle of 4 runs]
440 K	0.8141 kPa [middle of 4 runs]
445 K	1.004 kPa [middle of 4 runs]
450 K	1.235 kPa [middle of 4 runs]
455 K	1.516 kPa [middle of 4 runs]
460 K	1.844 kPa [middle of 4 runs]
465 K	2.233 kPa [middle of 4 runs]
470 K	2.697 kPa [middle of 4 runs]
475 K	3.245 kPa [middle of 4 runs]
480 K	3.773 kPa and 3.874 kPa and 3.819 kPa

NC(=O)c1ccccc1[N+](=O)[O-] [2-nitrobenzamide]
[1]
Conditions	vapor or sublimation pressure
485.02 K	0.5592 kPa
485.04 K	0.5538 kPa
485.08 K	0.5802 kPa
490.02 K	0.6682 kPa
490.06 K	0.6975 kPa
490.07 K	0.6914 kPa
495 K	0.8483 kPa
495.01 K	0.8342 kPa
495.05 K	0.8126 kPa
500.01 K	1.016 kPa
500.05 K	0.9934 kPa
500.08 K	1.036 kPa
505 K	1.234 kPa
505.03 K	1.212 kPa
505.05 K	1.264 kPa
510.02 K	1.487 kPa
510.04 K	1.531 kPa
510.07 K	1.503 kPa
515.02 K	1.877 kPa
515.05 K	1.829 kPa
515.08 K	1.822 kPa
520.02 K	2.233 kPa
520.05 K	2.227 kPa
520.07 K	2.203 kPa
525.01 K	2.884 kPa and 2.697 kPa
525.06 K	2.718 kPa
530.02 K	3.274 kPa
530.03 K	3.315 kPa
530.07 K	3.29 kPa
535.02 K	3.942 kPa
535.03 K	3.951 kPa
535.06 K	3.957 kPa

Conditions	Molar enthalpy of transition or fusion [kJ/mol]	Normal melting temperature [°C]	molar heat capacity at constant pressure [J/K/mol]
[1]	–	173.80	–
[2]	27.7	–	–
[3]	–	–	220.96

NC(=O)c1cccc([N+](=O)[O-])c1 [3-nitrobenzamide]
[1]
Conditions	vapor or sublimation pressure [kPa]
485 K	0.7222
485.02 K	0.7094
485.06 K	0.6868
490.01 K	0.8798
490.02 K	0.868
490.06 K	0.84
495.01 K	1.068
495.02 K	1.057
495.05 K	1.021
500 K	1.286
500.01 K	1.284
500.04 K	1.246
505.03 K	1.495
505.07 K	1.556
505.08 K	1.557
510 K	1.794
510.04 K	1.867
510.06 K	1.872
515.02 K	2.228
515.03 K	2.226
515.06 K	2.146
520.02 K	2.545
520.06 K	2.654
520.07 K	2.633
525.02 K	3.119
525.03 K	3.091
525.06 K	3.009
530 K	3.525
530.04 K	3.638
530.06 K	3.596
535.01 K	4.145
535.03 K	4.119
535.06 K	4.215

Conditions	Molar enthalpy of transition or fusion [kJ/mol]	Normal melting temperature [°C]	molar heat capacity at constant pressure [J/K/mol]
[1]	–	141.51	–
[2]	24.6	–	–
[3]	–	–	237.57
